A short description of this series: gradient 5% acetonitrile 3 min, to 50% in 2 min, to 85% in 15 min, held 3 min, 100 µL/min. The conditions noted are these: column: Zorbax Extend-C18 2.1 x 50 mm; eluents: water / acetonitrile, 0.1% formic acid. The essentials: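 Retention time was recorded from adduct peaks, which were picked computationally and each inspected manually. Pure standards ran in mixtures of ~100 molecules on HPLC coupled to a quadrupole time-of-flight mass spectrometer, in positive and negative ionization mode, through a Zorbax Extend-C18 column (2.1 × 50 mm, 1.8 μm) at 100 μL/min. Eluents were water and acetonitrile, each with 0.1% formic acid.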
In turn, `CCOc1ccc(-c2nc3ncccn3c2NCc2ccccc2)cc1OC` returned an RP-LC retention time of 697 s.
As for `O=C(Nc1cnn(-c2ncncc2N2CCCCC2)c1)c1ccc2c(c1)OCO2`, the RP-LC retention time was determined as 702 s.
The figure for `C=CCNC(=O)c1cnn(-c2cc(-c3nc(C(C)C)no3)ccn2)c1C` is 776 s; for `Cc1ccc2cc(CCC(=O)NC3CCN(Cc4ccccc4)CC3)c(=O)[nH]c2c1` it is 614 s; for `Cc1[nH]c2ccccc2c1C(=O)C(=O)NCc1ccccn1` it is 605 s.
The figure for `O=C(c1ccc(F)cc1)N1CCN(c2ccc(N3CCCC3)nn2)CC1` is 604 s; for `CCc1ccc(NC(=O)Cn2c(N)nc(C)c(C)c2=O)cc1` it is 596 s; for `O=C(c1cccc(Cl)c1)N1CCC2(C1)NC(=O)N(Cc1ccc(F)cc1)C2=O` (stereo unspecified) it is 820 s.
In turn, `O=C(Cn1c(=O)c2cccn2c2ccc(F)cc21)NCCc1cccs1` registered an RP-LC retention time of 822 s.
The compound `O=C(Nc1ccccc1)N1CCN(c2cnn3c(C4CC4)nnc3c2)CC1` returned an RP-LC retention time of 625 s.
For the compound `CCCn1cc(C(=O)Nc2cccc(OC)c2)c(=O)c2ccc(C)nc21`, the RP-LC retention time amounted to 1130 s.
`O=C(Cc1ccc(Cl)cc1)Nc1cnc(N2CCCC2)nc1`: the RP-LC retention time amounted to 752 s.
`Cc1nc2cc(N3CC(C(=O)Nc4ccc(F)c(C)c4)CC3=O)ccc2o1` (stereo unspecified) showed an RP-LC retention time of 753 s.
With `CCc1nc(OCC(=O)NCc2ccccc2)c2ccccc2n1`, the RP-LC retention time was determined as 756 s.
On to `CN(CC1CCOC1)C(=O)Nc1c(F)cccc1F` (stereo unspecified), for which the RP-LC retention time turned out to be 638 s.
The figure for `Nc1nc(N2CCCC2)ncc1C(=O)NCc1ccccc1` is 615 s; for `CCOCCCNC(=O)c1nnc(-c2ccc(S(=O)(=O)N3CCOCC3)cc2)o1` it is 727 s; for `O=C(CCSc1ccc(F)cc1)Nc1ccccc1-c1nc2ccccc2[nH]1` it is 939 s.
With `CCS(=O)(=O)N1CCCc2cc(C(=O)Nc3cc(OC)c(Cl)cc3OC)ccc21` the figure was 1040 s.
With `Cc1ccc(C(=O)N2CCC(C)CC2)cc1[N+](=O)[O-]` the figure was 830 s; with `COc1ccccc1C(=O)N1CCC2(CC1)NC(=O)c1ccc(F)cc1N2C`, 725 s.
In turn, `O=c1ccc(-c2ccc3c(c2)OCO3)nn1CCc1nc(-c2cccc(Br)c2)no1` displayed an RP-LC retention time of 1060 s.
The figure for `COCCn1cc(CC(=O)NC2CCCCCC2)c2cccnc21` is 746 s.
The figure for `CC(C)Cn1cc(CCNS(=O)(=O)c2cccc(Cl)c2)c2cccnc21` is 985 s; for `CCOc1cc(C(=O)NC(C)C(=O)Nc2nc3ccccc3[nH]2)cc(OCC)c1OCC` (stereo unspecified) it is 745 s.
On to `CCCC(=O)NC1CCN(c2ccc(C)c(C)c2)C1=O` (stereo unspecified), for which the RP-LC retention time was determined as 736 s.
With `COC(=O)Cn1c(C)cc(=O)c2cccc(F)c21` the figure was 549 s.
The figure for `COC(=O)c1ccccc1NC(=O)c1c(O)c2cccc3c2n(c1=O)CC3` is 1170 s.
`Cc1cccc(C)c1Nc1c(-c2ccccc2)nc2cnccn12` yielded an RP-LC retention time of 865 s.
The figure for `Cc1ccc(C(=O)N2CCC(COc3ccc(C(=O)NC(C)C)cc3)CC2)c(C)c1` is 931 s.
For the compound `O=C(/C=C/c1cccnc1)c1ccccc1O`, the RP-LC retention time is 817 s.
Regarding `CC(C)CCNC(=O)c1ccc2c(=O)n(-c3ccccc3)c(N3CCCC3)nc2c1`, the RP-LC retention time turned out to be 858 s.
The compound `CCCc1cc(SCC(=O)Nc2nccs2)ncn1` yielded an RP-LC retention time of 692 s.
With `Cc1cccc(-c2noc(Cn3ncn4nc(-c5ccc(F)cc5)cc4c3=O)n2)c1`, the RP-LC retention time was 1150 s.
Turning to `Cc1cc(C)cc(S(=O)(=O)N2CCC(C(=O)NCc3csc(-c4ccccc4)n3)CC2)c1`, the RP-LC retention time stood at 990 s.
`O=C(Cc1cccc2ccccc12)Nc1c(-c2ccccc2)nc2ccccn12` showed an RP-LC retention time of 708 s.
For `N#Cc1ccc(C(=O)N2CCOCCNC(=O)[C@@H]3CCC[C@@H]32)cc1`, the RP-LC retention time came out at 659 s.
Turning to `Cc1cccc(-c2noc(C3CCCN3C(=O)NCCc3ccccc3)n2)c1` (stereo unspecified), the RP-LC retention time came out at 593 s.
`Cc1cc(N2CCN(C)CC2)nc(N2CCN(C(=O)c3ccc(-c4ccccc4)cc3)CC2)n1`: the RP-LC retention time came out at 585 s.
`CCOc1ccc(-c2cc3n(n2)CCCN(C(C)=O)C3)cc1` had an RP-LC retention time of 637 s.
`O=C(Nc1ccc(Cl)cc1)c1cnc(-c2ccc(F)cc2)nc1-c1ccncc1` returned an RP-LC retention time of 986 s.
On to `COc1ccc(-c2nnc(-c3cccnc3NCc3cccc(OC)c3OC)o2)cc1`, for which the RP-LC retention time was 1060 s.
In the case of `COC(=O)C1=C(N)C(=O)N(CCc2ccc(OC)c(OC)c2)C1`, the RP-LC retention time worked out at 648 s.
With `Cc1cccc(OCC(=O)Nc2nc(-c3ccccc3)cs2)c1`, the RP-LC retention time amounted to 1090 s.
The figure for `CCc1cc(C(=O)NCc2ccc(C)cc2)nc2ccnn12` is 985 s.
Regarding `O=C(NCCc1ccc(N2CCCC2)cc1)C(=O)Nc1ccc(OC(F)(F)F)cc1`, the RP-LC retention time is 1090 s.
`CCn1cc(-c2ccncc2)cc1C(=O)NCc1ccccc1Br` gave an RP-LC retention time of 682 s.
Turning to `Cc1nnc(-c2cc(NC(=O)c3ccc(F)cc3Cl)c(C)s2)o1`, the RP-LC retention time worked out at 865 s.
Take `COc1ccc2[nH]cc(CCNC(=O)c3c(-c4ccccn4)noc3C)c2c1`: the RP-LC retention time came to 846 s.
`COc1ccccc1-c1noc(Cn2c(=O)n(-c3ccccc3F)c(=O)c3sccc32)n1` came in with an RP-LC retention time of 880 s.
The figure for `O=C([C@@H]1C[C@H](F)CN1S(=O)(=O)c1cccs1)N1CCc2ccccc2C1` is 830 s; for `CCCNC(=O)c1cc(=O)[nH]c2c(Cl)cccc12` it is 1080 s; for `Cc1oc(C2CCN(C(=O)Nc3ccc4c(c3)CCC4)CC2)nc1C(=O)N(C)C` it is 766 s.
The compound `Fc1cc(F)cc(-c2nnc(Cc3nc(-c4ccncc4)no3)o2)c1` came in with an RP-LC retention time of 780 s.
Take `Cc1cccc(C)c1Nc1c(-c2ccccc2O)nc2ncccn12`: the RP-LC retention time came out at 705 s.
With `O=C(N[C@H]1C[C@@H]2C[C@H]1CN2C(=O)c1ccc(OC(F)(F)F)cc1)c1cccs1` the figure was 842 s.
Turning to `Cc1nc(-c2ccc(N3CCN(C(=O)c4cccc(C#N)c4)CC3)nc2)sc1C`, the RP-LC retention time is 825 s.
Compound `CCn1cc(CCNC(=O)Nc2cccc(C(C)=O)c2)c2cccnc21` gave an RP-LC retention time of 665 s.
As for `Cc1cc2nc(C(F)(F)F)c(=O)n(C(C)C(=O)NCc3ccco3)c2cc1C` (stereo unspecified), the RP-LC retention time amounted to 756 s.
For `Cc1cc(=O)n(CC(=O)Nc2ccc(Br)cc2)c(N2CCCCC2)n1`, the RP-LC retention time came out at 716 s.
For the compound `Cc1cc(C)c(S(=O)(=O)N2CC(c3nc(-c4ccncc4)no3)C2)c(C)c1`, the RP-LC retention time amounted to 978 s.

For the origin of these results see the METLIN SMRT retention time set (Domingo-Almenara et al. 2019).
